Where “and” joins values, the source holds several entries; their conditions need not be identical. Identical values can stand only once.
Key:
[1] = tested on: C. elegans; test: C. elegans motor phenotype scoring on solid media (Punc/jerky-unc, coiled, paralyzed), wild-type young adults; type: in vivo, Caenorhabditis elegans; details: for atypical locomotion (number of animals) / coiled (number of animals) / no phene (number of animals) / paralyzed (number of animals): young adults, 20 animals per trial, single replicate counts; for Fraction Coiled / Fraction Jerky-Unc / Fraction No Phenotype / Fraction Parayzed / Fraction Coiled, Averages of 3 biological repeats / Fraction Jerky-Unc, Averages of 3 biological repeats / Fraction No Phenotype, Averages of 3 biological repeats / Fraction Parayzed, Averages of 3 biological repeats / C1 (loose coil) worm count / C2 (tight coil) worm count / J (jerky-unc) worm count / NP (no phene) worm count / P (paralyzed) worm count: 60 min; for rep 1 atypical locomotion / rep 1 coiled / rep 1 no phene / rep 1 paralyzed: N2, count of 20 animals
[2] = tested on: Pristionchus pacificus; test: Pristionchus pacificus motor disruption dose-response on solid media, 1 h; details: for mean % any phene (coiled, jerky-Unc or paralyzed): Pristionchus pacificus young adults, mean of three biological replicates; for rep 1 atypical locomotion / rep 1 coiled / rep 1 no phene / rep 1 paralyzed: count of 20 animals per trial, one hour
[3] = 15 µM, N2 adult worms, Averages of 3 biological repeats
[4] = 15 µM, N2 adult worms, Bio Rep 1
[5] = 15 µM, N2 adult worms, Bio Rep 3
[6] = 15 µM, N2 adult worms, Bio rep 2
[7] = 30 µM, N2 adult worms, Averages of 3 biological repeats
[8] = 30 µM, N2 adult worms, Bio Rep 1
[9] = 30 µM, N2 adult worms, Bio Rep 3
[10] = 30 µM, N2 adult worms, Bio rep 2
[11] = 60 µM, N2 adult worms, Averages of 3 biological repeats
[12] = 60 µM, N2 adult worms, Bio Rep 1
[13] = 60 µM, N2 adult worms, Bio Rep 3
[14] = 60 µM, N2 adult worms, Bio rep 2
[15] = N2, 15 µM, adult worms, average of 3 biological repeats
[16] = N2, 30 µM, adult worms, average of 3 biological repeats
[17] = N2, 60 µM, adult worms, average of 3 biological repeats
[18] = N2 series 1 (run with e245, md414), 15 µM
[19] = N2 series 1 (run with e245, md414), 15 µM, single Bio Rep
[20] = N2 series 1 (run with e245, md414), 30 µM
[21] = N2 series 1 (run with e245, md414), 30 µM, single Bio Rep
[22] = N2 series 1 (run with e245, md414), 60 µM
[23] = N2 series 1 (run with e245, md414), 60 µM, single Bio Rep
[24] = N2 series 2 (run with e327), 15 µM
[25] = N2 series 2 (run with e327), 15 µM, single Bio Rep
[26] = N2 series 2 (run with e327), 30 µM
[27] = N2 series 2 (run with e327), 30 µM, single Bio Rep
[28] = N2 series 2 (run with e327), 60 µM
[29] = N2 series 2 (run with e327), 60 µM, single Bio Rep

For `O=[N+]([O-])c1ccc(N2CCN(CC3CCCCC3)CC2)cc1` [Nemacol-1], the “atypical locomotion (number of animals)” value ([1]; 3.75uM, one hour) was 9 and 12 and 2 and 3 and 11, the “coiled (number of animals)” value ([1]; 3.75uM, one hour) was 0 and 2 and 1 and the “no phene (number of animals)” value ([1]; 3.75uM, one hour) was 11 and 8 and 16 and 17 and 9. For the same compound, the “paralyzed (number of animals)” value ([1]; 3.75uM, one hour) was 0, the “Fraction Coiled” value [1, 3] was 0.15 and the “Fraction Jerky-Unc” value [1, 3] was 0.69. The “Fraction No Phenotype” value [1, 3] was 0.15, the “Fraction Parayzed” value [1, 3] was 0.0185 and the “Fraction Coiled” value [1, 4] was 0.17. For the same compound, the “Fraction Jerky-Unc” value [1, 4] was 0.6111, the “Fraction No Phenotype” value [1, 4] was 0.22 and the “Fraction Parayzed” value [1, 4] was 0. For the same compound, the “Fraction Coiled” value [1, 5] was 0.11, the “Fraction Jerky-Unc” value [1, 5] was 0.8333 and the “Fraction No Phenotype” value [1, 5] was 0.0556. The “Fraction Parayzed” value [1, 5] was 0, the “Fraction Coiled” value [1, 6] was 0.17 and the “Fraction Jerky-Unc” value [1, 6] was 0.6111. For the same compound, the “Fraction No Phenotype” value [1, 6] was 0.17, the “Fraction Parayzed” value [1, 6] was 0.05556 and the “any phene, mean % fraction of young adults exhibiting any phenotype (coiled, jerky-Unc or paralyzed)” value ([1]; 15uM, one hour, mean of three biological replicates) was 91.0317%. The “atypical locomotion (number of animals)” value ([1]; 15uM, one hour) was 6 and 4 and 7 and 5 and 12 and 16, the “coiled (number of animals)” value ([1]; 15uM, one hour) was 5 and 8 and 13 and 4 and the “no phene (number of animals)” value ([1]; 15uM, one hour) was 0 and 5 and 2 and 4. The “paralyzed (number of animals)” value ([1]; 15uM, one hour) was 9 and 11 and 1 and 0, the “Fraction Coiled” value [1, 7] was 0.46 and the “Fraction Jerky-Unc” value [1, 7] was 0.31. The “Fraction No Phenotype” value [1, 7] was 0.00, the “Fraction Parayzed” value [1, 7] was 0.23 and the “Fraction Coiled” value [1, 8] was 0.61. The “Fraction Jerky-Unc” value [1, 8] was 0.2222, the “Fraction No Phenotype” value [1, 8] was 0.00 and the “Fraction Parayzed” value [1, 8] was 0.1667. The “Fraction Coiled” value [1, 9] was 0.41, the “Fraction Jerky-Unc” value [1, 9] was 0.3529 and the “Fraction No Phenotype” value [1, 9] was 0.00. The “Fraction Parayzed” value [1, 9] was 0.2353, the “Fraction Coiled” value [1, 10] was 0.35 and the “Fraction Jerky-Unc” value [1, 10] was 0.3529. The “Fraction No Phenotype” value [1, 10] was 0.00, the “Fraction Parayzed” value [1, 10] was 0.2941 and the “Fraction Coiled” value [1, 11] was 0.60. For the same compound, the “Fraction Jerky-Unc” value [1, 11] was 0.10, the “Fraction No Phenotype” value [1, 11] was 0.00 and the “Fraction Parayzed” value [1, 11] was 0.29. The “Fraction Coiled” value [1, 12] was 0.69, the “Fraction Jerky-Unc” value [1, 12] was 0.125 and the “Fraction No Phenotype” value [1, 12] was 0.00. For the same compound, the “Fraction Parayzed” value [1, 12] was 0.1875, the “Fraction Coiled” value [1, 13] was 0.56 and the “Fraction Jerky-Unc” value [1, 13] was 0.1111. For the same compound, the “Fraction No Phenotype” value [1, 13] was 0.00, the “Fraction Parayzed” value [1, 13] was 0.3333 and the “Fraction Coiled” value [1, 14] was 0.57. The “Fraction Jerky-Unc” value [1, 14] was 0.07143, the “Fraction No Phenotype” value [1, 14] was 0.00 and the “Fraction Parayzed” value [1, 14] was 0.3571. For the same compound, the “atypical locomotion (number of animals)” value ([1]; 60uM, one hour) was 2 and 1 and 4, the “coiled (number of animals)” value ([1]; 60uM, one hour) was 7 and 11 and 17 and 19 and 12 and 8 and the “no phene (number of animals)” value ([1]; 60uM, one hour) was 0. For the same compound, the “paralyzed (number of animals)” value ([1]; 60uM, one hour) was 11 and 7 and 1 and 0 and 6 and 8, the “motor defects after 24 h on compound” value ([1]; 24 h) was “no longer have obvious motor defects” and the EC50 ([1]; Caenorhabditis elegans, 1 h, read-out: C. elegans - motor disruption EC50) was 7.1 µM. For the same compound, the “Fraction Coiled” value [1, 15] was 0.15, the “Fraction Jerky-Unc” value [1, 15] was 0.69 and the “Fraction No Phenotype” value [1, 15] was 0.15. The “Fraction Parayzed” value [1, 15] was 0.0185, the “Fraction Coiled” value [1, 16] was 0.46 and the “Fraction Jerky-Unc” value [1, 16] was 0.31. The “Fraction No Phenotype” value [1, 16] was 0.00, the “Fraction Parayzed” value [1, 16] was 0.23 and the “Fraction Coiled” value [1, 17] was 0.60. The “Fraction Jerky-Unc” value [1, 17] was 0.10, the “Fraction No Phenotype” value [1, 17] was 0.00 and the “Fraction Parayzed” value [1, 17] was 0.29. The “rep 1 atypical locomotion” value ([1]; conc 3.75) was 3, the “rep 1 coiled” value ([1]; conc 3.75) was 2 and the “rep 1 no phene” value ([1]; conc 3.75) was 15. The “rep 1 paralyzed” value ([1]; conc 3.75) was 0, the “rep 1 atypical locomotion” value ([1]; conc 15) was 3 and the “rep 1 coiled” value ([1]; conc 15) was 4. For the same compound, the “rep 1 no phene” value ([1]; conc 15) was 7, the “rep 1 paralyzed” value ([1]; conc 15) was 6 and the “rep 1 atypical locomotion” value ([1]; conc 60) was 2. The “rep 1 coiled” value ([1]; conc 60) was 3, the “rep 1 no phene” value ([1]; conc 60) was 0 and the “rep 1 paralyzed” value ([1]; conc 60) was 15. The “Fraction Coiled, Averages of 3 biological repeats” value [1, 18] was 0.26, the “Fraction Jerky-Unc, Averages of 3 biological repeats” value [1, 18] was 0.67 and the “Fraction No Phenotype, Averages of 3 biological repeats” value [1, 18] was 0.037. For the same compound, the “Fraction Parayzed, Averages of 3 biological repeats” value [1, 18] was 0.037, the “C1 (loose coil) worm count” value [1, 19] was 1 and 2 and the “C2 (tight coil) worm count” value [1, 19] was 3 and 4. The “Fraction Coiled” value [1, 19] was 0.28 and 0.22, the “Fraction Jerky-Unc” value [1, 19] was 0.6111 and 0.7222 and 0.6667 and the “J (jerky-unc) worm count” value [1, 19] was 13 and 11 and 12. The “Fraction Coiled, Averages of 3 biological repeats” value [1, 20] was 0.59, the “Fraction Jerky-Unc, Averages of 3 biological repeats” value [1, 20] was 0.28 and the “Fraction No Phenotype, Averages of 3 biological repeats” value [1, 20] was 0.00. The “Fraction Parayzed, Averages of 3 biological repeats” value [1, 20] was 0.13, the “C1 (loose coil) worm count” value [1, 21] was 5 and the “C2 (tight coil) worm count” value [1, 21] was 5 and 7. For the same compound, the “Fraction Coiled” value [1, 21] was 0.56 and 0.67, the “Fraction Jerky-Unc” value [1, 21] was 0.1667 and 0.3333 and the “Fraction No Phenotype” value [1, 21] was 0.00. The “J (jerky-unc) worm count” value [1, 21] was 6 and 3, the “NP (no phene) worm count” value [1, 21] was 0 and the “Fraction Coiled, Averages of 3 biological repeats” value [1, 22] was 0.64. The “Fraction Jerky-Unc, Averages of 3 biological repeats” value [1, 22] was 0.11, the “Fraction No Phenotype, Averages of 3 biological repeats” value [1, 22] was 0.00 and the “Fraction Parayzed, Averages of 3 biological repeats” value [1, 22] was 0.25. The “C1 (loose coil) worm count” value [1, 23] was 3 and 4, the “C2 (tight coil) worm count” value [1, 23] was 6 and 8 and the “Fraction Coiled” value [1, 23] was 0.67 and 0.60. For the same compound, the “Fraction No Phenotype” value [1, 23] was 0.00, the “NP (no phene) worm count” value [1, 23] was 0 and the “Fraction Coiled, Averages of 3 biological repeats” value [1, 24] was 0.20. For the same compound, the “Fraction Jerky-Unc, Averages of 3 biological repeats” value [1, 24] was 0.69, the “Fraction No Phenotype, Averages of 3 biological repeats” value [1, 24] was 0.11 and the “Fraction Parayzed, Averages of 3 biological repeats” value [1, 24] was 0.00. For the same compound, the “C2 (tight coil) worm count” value [1, 25] was 3 and 2, the “Fraction Jerky-Unc” value [1, 25] was 0.7778 and 0.6667 and 0.6316 and the “Fraction No Phenotype” value [1, 25] was 0.11. The “Fraction Parayzed” value [1, 25] was 0, the “J (jerky-unc) worm count” value [1, 25] was 12 and 14 and the “NP (no phene) worm count” value [1, 25] was 2. The “P (paralyzed) worm count” value [1, 25] was 0, the “Fraction Coiled, Averages of 3 biological repeats” value [1, 26] was 0.49 and the “Fraction Jerky-Unc, Averages of 3 biological repeats” value [1, 26] was 0.36. The “Fraction No Phenotype, Averages of 3 biological repeats” value [1, 26] was 0.00, the “Fraction Parayzed, Averages of 3 biological repeats” value [1, 26] was 0.15 and the “C2 (tight coil) worm count” value [1, 27] was 4 and 7 and 6. For the same compound, the “Fraction No Phenotype” value [1, 27] was 0.00, the “NP (no phene) worm count” value [1, 27] was 0 and the “Fraction Coiled, Averages of 3 biological repeats” value [1, 28] was 0.57. For the same compound, the “Fraction Jerky-Unc, Averages of 3 biological repeats” value [1, 28] was 0.11, the “Fraction No Phenotype, Averages of 3 biological repeats” value [1, 28] was 0.00 and the “Fraction Parayzed, Averages of 3 biological repeats” value [1, 28] was 0.32. For the same compound, the “C1 (loose coil) worm count” value [1, 29] was 3 and 4, the “Fraction Coiled” value [1, 29] was 0.58 and 0.41 and 0.72 and the “Fraction No Phenotype” value [1, 29] was 0.00. For the same compound, the “Fraction Parayzed” value [1, 29] was 0.3158 and 0.3529 and 0.2778, the “NP (no phene) worm count” value [1, 29] was 0 and the “P (paralyzed) worm count” value [1, 29] was 6 and 5. The “fold difference in C. elegans EC50, Vesamicol vs Nemacol-1” value ([1]; Vesamicol EC50 higher, Nemacol-1 more potent) was 5.4 fold, the “mean % any phene (coiled, jerky-Unc or paralyzed)” value (shortened to “mean % any phene”) ([2]; conc 3.75, observed at one hour) was 0% and the “mean % any phene” value ([2]; conc 15, observed at one hour) was 56.6667%. The “mean % any phene” value ([2]; conc 60, observed at one hour) was 100%, the EC50 ([2]; Pristionchus pacificus, 1 h, read-out: P. pacificus motor disruption EC50) was 14.1 ± 2.9 µM and the “rep 1 atypical locomotion” value ([2]; conc 3.75) was 4. For the same compound, the “rep 1 coiled” value ([2]; conc 3.75) was 1, the “rep 1 no phene” value ([2]; conc 3.75) was 15 and the “rep 1 paralyzed” value ([2]; conc 3.75) was 0. For the same compound, the “rep 1 atypical locomotion” value ([2]; conc 15) was 13, the “rep 1 coiled” value ([2]; conc 15) was 1 and the “rep 1 no phene” value ([2]; conc 15) was 6. For the same compound, the “rep 1 paralyzed” value ([2]; conc 15) was 0, the “rep 1 atypical locomotion” value ([2]; conc 60) was 0 and the “rep 1 coiled” value ([2]; conc 60) was 2. For the same compound, the “rep 1 no phene” value ([2]; conc 60) was 0 and the “rep 1 paralyzed” value ([2]; conc 60) was 18.
